From US5491220A, “Surface loop structural analogues of fibroblast growth factors” (Yeda Research and Development Co., Ltd., priority 1994, dated 1996)
Entries after “also recorded” stand apart in the source; their conditions may differ.

Assays:
[1] = system: soluble FGF receptor 1 (FGFR-1; flg); experiment: Competition binding to soluble FGFR1 (displacement of 125I-FGF-2); design: species or system murine; details: 200 ng/ml heparin
Description: (§1) Binding of FGF proteins to different FGF receptors are determined in this example, by measuring the degree of competition for binding to different types of FGF-receptor proteins between a radioiodinated FGF protein and various unlabelled proteins, or by the direct binding of radioiodinated FGF's to various receptor proteins. Binding studies are confirmed by chemical cross-linking of the radioiodinated FGF to soluble receptors in the presence and absence of excess unlabelled FGF.
(§2) Soluble FGF receptor proteins are constructed by cloning of the extracellular region of murine FGF receptor 1 (FGFR-1; flg), FGF receptor 2 (FGFR-2; bek) or the KGF receptor (FGFR(IIIb); K-sam) into the alkaline phosphatase-tag expression vector, which encodes for a secreted form of placental alkaline phosphatase (AP). The FGF receptor alkaline phosphatase (FRAP) plasmids are cotransfected into NIH 3T3 cells by electroporation with a selectable neomycin resistance gene. Clonies are selected in G418 (600 μg/ml) and screened for secreted AP enzyme activity in the conditioned medium. Clones of each receptor which produced a high level of AP activity (2 to 4 A405 units/min/ml) are then used to produce conditioned medium for binding assays.
(§3) Components of the soluble receptor binding reaction mixture include FRAP-conditioned medium (0.24 OD units/min), 2 ng/ml^125 I-FGFs and 200 ng/ml heparin. The FGF:heparin:FRAP terniary complex is immunoprecipitated with 20 μl of a 1:1 slurry of anti-AP monoclonal antibodies coupled to protein A Sepharose®. All components are mixed at room temperature. The total volume is adjusted to 200 μl by addition of DMEM containing 0.1% bovine serum albumin. Binding is allowed to proceed for 1 to 2 hours at 24° C., after which time bound receptor complex or the ligand is recovered by centrifugation at 4° C. (10 s at 2,000×g). The pelleted material is washed twice with 500 μl of an ice cold buffer containing HEPES (20 mM), NaCl (150 mM), glycerol (10%) and Triton® X-100 (1%). ^125 I-FGF binding is quantitated by counting of the samples in a gamma counter (LKB). Alternatively, AP enzyme activity of the FRAP protein is determined by transferring the FRAP receptor bound to […] to a flat-bottom microtiter plate in a volume of 50 μl of PBS. The reaction is initiated by addition of substrate (50 μl of 2× solution of AP assay buffer containing 2M diethanoiamine, 1 mM MgCl2, 20 mM homoarginine and 12 mM p-nitrophenyl phosphate). The reaction is followed at room temperature at 405 nm in a kinetic microplate reader.

FGFR1 = experiment: Chemical cross-linking of 125I-FGF to soluble FGFR1; format: binding, murine; details: with and without excess unlabelled FGF
Description: as §1, §2
(§4) Chemical cross-linking experiments are carried out at room temperature in a volume of 20 μl in siliconized 0.5-ml microcentrifuge tubes. The reaction mixtures contain FGF receptor immobilized to anti-AP monoclonal antibodies coupled to protein A Sepharose®, 200 ng/ml heparin, 2 ng/ml^125 I-bFGF, 20 mM phosphate buffer (pH 7.4), and 140 mM NaCl. After a 90 minute incubation, […] of a solution of disuccinimidyl suberate (Pierce) dissolved in dimethyl sulfoxide is added to give a final concentration of 0.15 mM, and the mixture incubated for an additional 30 minutes. The reaction is quenched by addition of […] of 200 mM ethanolamine-HCl (pH 8.0) for 30 min. The reaction mixtures are diluted 1:1 with 2× SDS-polyacrylamide gel electrophoresis loading buffer and electrophoresed on an SDS-12% polyacrylamide gel. Cross-linked FGF to the FGF receptor are detected by autoradiography on Kodak XAR film.

[2] = system: FGFR2(IIIb) (FGF-7 or KGF receptor); experiment: Competition binding to soluble FGFR2(IIIb) (displacement of 125I-FGF-7); design: species or system murine; details: 200 ng/ml heparin
Description: as §1, §2, §3

FGFR2(IIIb) = experiment: Chemical cross-linking of 125I-FGF to soluble FGFR2(IIIb); format: binding, murine; details: with and without excess unlabelled FGF
Description: as §1, §2, §4

[3] = system: FGF receptor on BHK cells; experiment: Competition for 125I-FGF-2 binding to baby hamster kidney (BHK) cells; details: 50 pM 125I-FGF-2; compared with FGF-2
Description: FGF-2LI and FGF-2LA are tested for their capacity to compete for the binding of ^125 I-FGF-2 (Amersham Corp.) to baby hamster kidney (BHK) cells, which express high numbers of FGF receptor. The assay employed is described by Moscatelli (J. Cell. Physiol. 131: 123-130 (1987)). Briefly stated, BHK cells plated on 24-well plates are incubated with 50 pM ^125 I-FGF-2 with serial dilutions of unlabelled FGF-2, FGF-2LI or FGF-2LA loop mutants at room temperature for 1 hour or at 4° C. for 2 hours. The cells are then incubated at 4° C. for 30 minutes, washed twice with phosphate-buffered saline and treated with 20 mM HEPES (N-2-hydroxyethyl-piperazine-N'-2-ethanesulfonic acid), pH 7.5, containing 2M NaCl to remove ^125 I-FGF-2 bound to low affinity heparin sulfate binding sites. Receptor bound ^125 I-FGF-2 is recovered by treatment of the cells with 0.5% Triton X-100 in 0.1M sodium phosphate, pH 8, and counted in a γ-counter. Assays are conducted in duplicate.

[4] = Affinity for immobilized heparin (NaCl elution from heparin column); format: binding
Description: Cells from 1 liter cultures are harvested by centrifugation, resuspended in 30 ml of 50 mM Tris-HCl, pH 7.5 containing 0.1 mM EDTA and 0.6M NaCl, and disrupted by treatment with lysozyme (10 μg/ml) for 20 min at 4° C. followed by sonication (6×30 sec pulses). The lysates are clarified by centrifugation (10,000×g; 20 min) and the supernatant solutions incubated with 5 ml of hydrated heparin Sepharose (Pharmacia/LKB) at 4° C. for 1 hour with constant rotation. The resin is isolated by filtration on 0.8 μm filter apparatus (Nalgene), washed extensively with 10 mM Tris-HCl pH 7.4 containing 0.6M NaCl and bound protein eluted with Tris buffer containing 3M NaCl (25 ml). The 3M NaCl eluent is diluted 6-fold with Tris buffer and loaded onto a TSK heparin 5PW column (0.21×15 cm; The Nest Group, MA) and the column developed using a linear NaCl gradient (0.6 to 2M) in 90 min at a flow rate of […].
NaCl elution from heparin-Sepharose® is about 0.7M NaCl, compared with 1.4M NaCl for the wild-type protein. The molarity of NaCl required to elute the LK mutant is similar to that required to elute FGF-7.

neovascularization = experiment: In vivo angiogenesis, rabbit ear chamber model
Description: In an in vivo model of angiogenesis, FGF-2LI is evaluated using the rabbit ear chamber system modified and improved by Howden, G. F., and Silver, I. A., (Int. Endodontic J. 13: 3-16 (1980)), observing the growth factor-induced neovascularization, or its inhibition, by modified growth factors or other reagents.
Rabbits are sedated using 50-70 mg/kg ketamine and 10 mg/kg xylozine administered intramuscularly. The ears are shaved with an electric hair clipper and cleaned with water, followed by Betadine®. To minimize the risk of infection, the rabbits are given 20,000 units/kg benzathine penicillin intramuscularly prior to insertion of the ear chambers. The chamber is inserted into an approximately 0.75 cm area which is not crossed by any major vessels. During the course of the experiments, observations or any minor handling of ear chambers of the animals is done by sedating the animal using the intramuscular administration of a combination of Butorphanol® and acepromazine at levels of 1 mg/kg each. FGF-2 or FGF-2LI bound to heparin-Sepharose® beads in a controlled-release alginate capsule is contained in one of the ear chambers and the other is used as a control containing only the heparin-Sepharose® alginate capsule vehicle. Thus, the effect of the growth factors and the controlled-release capsule alone can be observed simultaneously in the same animal. […] The animals are kept for 4 to 6 weeks and neovascularization is observed visually and recorded photographically at weekly intervals.
The criteria for evaluation of the degree of neovascularization using this procedure is set out below.

Binding to soluble FGFR1 (competition with 125I-FGF-2) [1] | Binding to soluble FGFR2(IIIb) (competition with 125I-FGF-7) [2] | Substance | Cross-linking to FGFR1 (FGFR1) | Cross-linking to FGFR2(IIIb) (FGFR2(IIIb)) | Capacity to compete with 125I-FGF-2 binding to FGF receptors on BHK cells [3] | NaCl concentration at elution from TSK-heparin column ([4]; TSK-heparin column) | NaCl elution from heparin-Sepharose ([4]; heparin-Sepharose) [M] | Angiogenesis at 400 ng/chamber (neovascularization; 400 ng/chamber) | Concentration range over which stimulatory activity is observed (neovascularization; rabbit ear chamber) | Potential to induce angiogenesis (neovascularization) (neovascularization; rabbit ear chamber, controlled-release alginate capsule) | Vessel formation in the chamber (neovascularization; rabbit ear chamber, versus control chambers)
no binding | bind with the same affinity | FGF-7: fibroblast growth factor-7, also known as keratinocyte growth factor or KGF (NHYNTYASAKWTHNGGEMFVALNQK) | not detected | bind | – | – | – | – | – | – | –
– | – | hrIL-1β: human recombinant interleukin-1β (Biogen) [reference compound] | – | – | no binding | – | – | – | – | – | –
bind equally well | bind with the same affinity | FGF-1: acidic fibroblast growth factor | bind | bind | affinity equal to that of FGF-2 | – | – | – | – | – | –

Substance | Binding to soluble FGFR1 (competition with 125I-FGF-2) [1] | Binding to soluble FGFR2(IIIb) (competition with 125I-FGF-7) [2] | Cross-linking to FGFR1 (FGFR1) | Cross-linking to FGFR2(IIIb) (FGFR2(IIIb)) | Capacity to compete with 125I-FGF-2 binding to FGF receptors on BHK cells [3] | NaCl concentration at elution from TSK-heparin column ([4]; TSK-heparin column) | NaCl elution from heparin-Sepharose ([4]; heparin-Sepharose) [M] | Angiogenesis at 400 ng/chamber (neovascularization; 400 ng/chamber) | Concentration range over which stimulatory activity is observed (neovascularization; rabbit ear chamber) | Potential to induce angiogenesis (neovascularization) (neovascularization; rabbit ear chamber, controlled-release alginate capsule) | Vessel formation in the chamber (neovascularization; rabbit ear chamber, versus control chambers)
FGF-2: basic fibroblast growth factor, wild-type factor used as comparator (NNYNTYRSRKYTSWYVALKRT) [reference compound] | bind equally well | do not bind; also recorded: does not compete | bind | excluded from binding | – | about 1.5 M | 1.4 | completely inhibited | 10-100 ng/chamber | dose-dependent induction of new blood vessels | stimulate large vessel formation
